Literature values as cited in publication PMC7126291 (Bioorganic & Medicinal Chemistry Letters, 2009).

Tests used:
human rhinovirus = conditions: Phase II clinical trials, intranasal delivery

Structure (SMILES) | IC50 (HAV 3C^pro) [nM] | reduction of mean total daily symptom score (human rhinovirus) [%]
O=C(Oc1cncc(Br)c1)c1ccco1 [Compound 7] | 53 | 
CCOC(=O)/C=C/[C@H](C[C@@H]1CCNC1=O)NC(=O)[C@@H](CC(=O)[C@@H](NC(=O)c1cc(C)on1)C(C)C)Cc1ccc(F)cc1 [rupintrivir] |  | 33
